Assay results as given in US8129371B2, “Thienopyrimidine and pyrazolopyrimidine compounds and their use as mTOR kinase and PI3 kinase inhibitors” (Wyeth LLC, priority 2007, dated 2012).
Where two headings read alike, the source gives them in different places.

Experiments:
breast line MDA468 = assay: In vitro cell culture growth assay (MTS), MDA468; format: cell-based; conditions: Homo sapiens, 72 h, MDA468 cells, three days after drug treatment
Method in brief: (§1)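 Following a one-day attachment period, cells received inhibitors for 3 days. MTS metabolism by viable cells was quantified at 490 nm absorbance and converted to percent of same-plate vehicle control growth.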

PI3K [1] = molecular target: T1, PI3K (Homo sapiens, UniProt P42336); assay: Fluorescence polarization assay for PI3K; format: biochemical; conditions: read-out: PI3 Kinase α IC50
T1 construct: PI3 Kinase α IC50; other: PI3 Kinase α; other: PI3 Kinase α isoform, fluorescence polarization
Method in brief: (§2)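 Fluorescence-polarization competition readout: after 30–60 min of PIP2/ATP turnover in 1% DMSO, a stop mix with GST-GRP (70 nM) and red probe (10 nM) was added.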

PI3K [2] = molecular target: T2, PI3K (Homo sapiens, UniProt P48736); assay: Fluorescence polarization assay for PI3K; format: biochemical; conditions: read-out: PI3 Kinase γ IC50
T2 construct: PI3 Kinase γ IC50; other: PI3 Kinase γ; other: PI3 Kinase γ isoform, fluorescence polarization
Method in brief: as §2

Human mTOR (FLAG-TOR) = molecular target: T3, Human mTOR (FLAG-TOR) (Homo sapiens, UniProt P42345); assay: Human mTOR kinase assay with purified enzyme, DELFIA format; format: biochemical
T3 construct: FLAG
Method in brief: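 DELFIA readout: Eu-anti-P(T389)-S6K antibody (40 ng/mL, 1 h) on captured His6-S6K from the stopped reaction. Kinase step used purified FLAG-tagged human mTOR with test compound in HEPES (pH 7.4)/MnCl2/DTT buffer, 2 h at room temperature (linear 1–6 h), terminated by EDTA/EGTA.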

prostate line LNCap = assay: In vitro cell culture growth assay (MTS), LNCap; format: cell-based; conditions: Homo sapiens, LNCaP, 72 h, LNCap cells, three days after drug treatment
Method in brief: as §1

[3] = PI3 Kinase α isoform, fluorescence polarization
[4] = PI3 Kinase γ isoform, fluorescence polarization
[5] = purified human mTOR enzyme, DELFIA format

T2 sequence (P48736 whole entry, canonical isoform): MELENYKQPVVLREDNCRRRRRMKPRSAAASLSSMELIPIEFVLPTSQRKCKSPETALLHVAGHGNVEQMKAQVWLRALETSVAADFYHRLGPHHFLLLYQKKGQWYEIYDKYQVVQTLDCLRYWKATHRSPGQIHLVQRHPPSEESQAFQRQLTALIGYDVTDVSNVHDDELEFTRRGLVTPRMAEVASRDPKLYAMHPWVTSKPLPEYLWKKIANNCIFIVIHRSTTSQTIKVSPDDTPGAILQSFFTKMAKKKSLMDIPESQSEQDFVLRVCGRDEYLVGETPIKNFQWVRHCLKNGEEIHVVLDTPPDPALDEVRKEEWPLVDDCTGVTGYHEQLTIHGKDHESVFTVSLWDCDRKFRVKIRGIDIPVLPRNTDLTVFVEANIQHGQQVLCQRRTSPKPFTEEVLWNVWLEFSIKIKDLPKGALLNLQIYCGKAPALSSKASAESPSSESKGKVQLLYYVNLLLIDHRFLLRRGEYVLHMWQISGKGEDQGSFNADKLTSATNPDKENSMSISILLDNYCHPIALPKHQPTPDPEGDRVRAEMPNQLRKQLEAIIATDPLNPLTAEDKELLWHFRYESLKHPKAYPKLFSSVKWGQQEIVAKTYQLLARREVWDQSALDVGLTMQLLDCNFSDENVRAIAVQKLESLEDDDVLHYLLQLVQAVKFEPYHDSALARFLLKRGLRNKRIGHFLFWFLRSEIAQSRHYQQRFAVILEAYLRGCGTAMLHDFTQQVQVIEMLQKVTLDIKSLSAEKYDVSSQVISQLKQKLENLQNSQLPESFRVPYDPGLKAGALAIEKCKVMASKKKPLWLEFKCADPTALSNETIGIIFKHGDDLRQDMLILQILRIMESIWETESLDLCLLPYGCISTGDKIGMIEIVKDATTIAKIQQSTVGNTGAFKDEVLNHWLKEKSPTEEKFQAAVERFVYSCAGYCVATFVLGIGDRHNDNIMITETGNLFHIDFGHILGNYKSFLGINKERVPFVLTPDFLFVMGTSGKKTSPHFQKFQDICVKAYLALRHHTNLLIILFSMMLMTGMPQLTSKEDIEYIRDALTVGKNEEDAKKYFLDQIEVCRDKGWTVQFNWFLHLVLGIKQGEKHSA
T1 sequence (P42336 whole entry, canonical isoform): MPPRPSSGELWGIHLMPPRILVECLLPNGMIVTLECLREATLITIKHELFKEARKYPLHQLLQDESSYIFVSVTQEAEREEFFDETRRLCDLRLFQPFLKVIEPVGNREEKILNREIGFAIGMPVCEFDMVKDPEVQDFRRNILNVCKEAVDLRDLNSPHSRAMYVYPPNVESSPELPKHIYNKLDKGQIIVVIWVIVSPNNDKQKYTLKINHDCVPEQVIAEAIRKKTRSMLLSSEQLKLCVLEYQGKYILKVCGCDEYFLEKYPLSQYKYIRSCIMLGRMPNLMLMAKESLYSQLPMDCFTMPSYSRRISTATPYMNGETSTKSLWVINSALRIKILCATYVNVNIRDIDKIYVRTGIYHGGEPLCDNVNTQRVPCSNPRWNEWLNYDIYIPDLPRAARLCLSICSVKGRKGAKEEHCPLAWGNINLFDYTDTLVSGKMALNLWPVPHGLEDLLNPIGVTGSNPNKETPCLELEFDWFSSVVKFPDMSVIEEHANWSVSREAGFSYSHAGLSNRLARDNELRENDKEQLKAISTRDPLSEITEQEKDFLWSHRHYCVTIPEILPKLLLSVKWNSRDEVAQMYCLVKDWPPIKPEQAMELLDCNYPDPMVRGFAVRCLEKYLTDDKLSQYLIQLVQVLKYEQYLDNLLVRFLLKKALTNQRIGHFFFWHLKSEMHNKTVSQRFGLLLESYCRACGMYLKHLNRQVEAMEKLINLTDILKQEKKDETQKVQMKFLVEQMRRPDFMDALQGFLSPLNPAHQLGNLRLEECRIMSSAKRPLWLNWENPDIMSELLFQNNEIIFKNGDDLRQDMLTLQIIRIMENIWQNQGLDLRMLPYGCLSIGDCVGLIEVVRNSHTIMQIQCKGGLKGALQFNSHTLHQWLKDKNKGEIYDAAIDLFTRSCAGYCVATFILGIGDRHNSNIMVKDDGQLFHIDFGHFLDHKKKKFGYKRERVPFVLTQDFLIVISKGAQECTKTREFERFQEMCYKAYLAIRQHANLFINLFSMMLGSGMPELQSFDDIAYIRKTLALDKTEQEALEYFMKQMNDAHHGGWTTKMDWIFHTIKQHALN

| Compound | IC50 (PI3K [1]; PI3 Kinase α) [nM] | IC50 (PI3K [2]; PI3 Kinase γ) [nM] | IC50 (Human mTOR (FLAG-TOR)) [nM] | IC50 (prostate line LNCap) [nM] | IC50 (PI3K [1]; [3]) [nM] | IC50 (PI3K [2]; [4]) [nM] | IC50 (Human mTOR (FLAG-TOR); [5]) [nM] | IC50 (breast line MDA468) [nM] |
| --- | --- | --- | --- | --- | --- | --- | --- | --- |
| O=C(Nc1ccc(-c2nc(N3C[C@@H]4C[C@H]3CO4)c3cnn(CC(F)(F)F)c3n2)cc1)OCCO [Example 291, 2-hydroxyethyl (4-{4-[(1S,4S)-2-oxa-5-azabicyclo[2.2.1]hept-5-yl]-1-(2,2,2-trifluoroethyl)-1H-pyrazolo[3,4-d]pyrimidin-6-yl}phenyl)carbamate] | 6140 | > 10000 | 9 | 170 | – | – | – | 300 |
| CNC(=O)Nc1ccc(-c2nc(N3C[C@@H]4C[C@H]3CO4)c3cnn(CC(F)(F)F)c3n2)cc1 [Example 292, 1-methyl-3-(4-{4-[(1S,4S)-2-oxa-5-azabicyclo[2.2.1]hept-5-yl]-1-(2,2,2-trifluoroethyl)-1H-pyrazolo[3,4-d]pyrimidin-6-yl}phenyl)urea] | 2090 | > 10000 | 5.5 | 80 | – | – | – | 300 |
| O=C(Nc1ccc(-c2nc(N3C[C@@H]4C[C@H]3CO4)c3cnn(CC(F)(F)F)c3n2)cc1)Nc1cccnc1 [Example 293, 1-(4-{4-[(1S,4S)-2-oxa-5-azabicyclo[2.2.1]hept-5-yl]-1-(2,2,2-trifluoroethyl)-1H-pyrazolo[3,4-d]pyrimidin-6-yl}phenyl)-3-pyridin-3-ylurea] | 602 | > 10000 | 1.25 | 17 | – | – | – | 50 |
| CN(C)CCOc1ccc(NC(=O)Nc2ccc(-c3nc(N4C[C@@H]5C[C@H]4CO5)c4cnn(CC(F)(F)F)c4n3)cc2)cc1 [Example 300, 1-{4-[2-(dimethylamino)ethoxy]phenyl}-3-(4-{4-[(1S,4S)-2-oxa-5-azabicyclo[2.2.1]hept-5-yl]-1-(2,2,2-trifluoroethyl)-1H-pyrazolo[3,4-d]pyrimidin-6-yl}phenyl)urea] | – | – | – | 1 | 572 | 5280 | 5.5 | 12 |
| COC1CCC(n2ncc3c(N4CC5CCC(C4)O5)nc(-c4ccc(NC(=O)Nc5ccc(N6CCNCC6)cc5)cc4)nc32)CC1 (stereo not drawn) [Example 305, 1-{4-[1-(4-methoxycyclohexyl)-4-(8-oxa-3-azabicyclo[3.2.1]oct-3-yl)-1H-pyrazolo[3,4-d]pyrimidin-6-yl]phenyl}-3-(4-piperazin-1-ylphenyl)urea] | – | – | – | < 1 | 182 | 1520 | 0.25 | 1 |
| COC1CCC(n2ncc3c(N4CC5CCC(C4)O5)nc(-c4ccc(NC(=O)Nc5ccc(C(N)=O)cc5)cc4)nc32)CC1 (stereo not drawn) [Example 306, 4-[({4-[1-(4-methoxycyclohexyl)-4-(8-oxa-3-azabicyclo[3.2.1]oct-3-yl)-1H-pyrazolo[3,4-d]pyrimidin-6-yl]phenyl}carbamoyl)amino]benzamide] | – | – | – | < 1 | 88 | 1270 | 0.079 | 8 |
| COC1CCC(n2ncc3c(N4CC5CCC(C4)O5)nc(-c4ccc(NC(=O)Nc5ccc(C(=O)NN6CCCC6)cc5)cc4)nc32)CC1 (stereo not drawn) [Example 307, 4-[({4-[1-(4-methoxycyclohexyl)-4-(8-oxa-3-azabicyclo[3.2.1]oct-3-yl)-1H-pyrazolo[3,4-d]pyrimidin-6-yl]phenyl}carbamoyl)amino]-N-pyrrolidin-1-ylbenzamide] | – | – | – | < 1 | 404 | 4960 | 0.145 | 2 |
| COC1CCC(n2ncc3c(N4CC5CCC(C4)O5)nc(-c4ccc(NC(=O)Nc5ccc(CO)cc5)cc4)nc32)CC1 (stereo not drawn) [Example 308, 1-[4-(hydroxymethyl)phenyl]-3-{4-[1-(4-methoxycyclohexyl)-4-(8-oxa-3-azabicyclo[3.2.1]oct-3-yl)-1H-pyrazolo[3,4-d]pyrimidin-6-yl]phenyl}urea] | – | – | – | < 1 | 80 | 2720 | 0.08 | < 1 |
| COC1CCC(n2ncc3c(N4CC5CCC(C4)O5)nc(-c4ccc(NC(=O)Nc5ccc(OCCN(C)C)cc5)cc4)nc32)CC1 (stereo not drawn) [Example 310, 1-{4-[2-(dimethylamino)ethoxy]phenyl}-3-{4-[1-(4-methoxycyclohexyl)-4-(8-oxa-3-azabicyclo[3.2.1]oct-3-yl)-1H-pyrazolo[3,4-d]pyrimidin-6-yl]phenyl}urea] | – | – | – | < 1 | 221 | 2430 | 0.495 | 1 |
| COC1CCC(n2ncc3c(N4CC5CCC(C4)O5)nc(-c4ccc(NC(=O)OCCO)cc4)nc32)CC1 (stereo not drawn) [Example 311, 2-hydroxyethyl {4-[1-(4-methoxycyclohexyl)-4-(8-oxa-3-azabicyclo[3.2.1]oct-3-yl)-1H-pyrazolo[3,4-d]pyrimidin-6-yl]phenyl}carbamate] | – | – | – | 2 | 3840 | > 10000 | 0.86 | 120 |
| O=C(Nc1ccc(-c2nc(N3CC4CCC(C3)O4)c3cnn(CC(F)(F)F)c3n2)cc1)Nc1ccc(N2CCNCC2)cc1 [Example 317, 1-{4-[4-(8-oxa-3-azabicyclo[3.2.1]oct-3-yl)-1-(2,2,2-trifluoroethyl)-1H-pyrazolo[3,4-d]pyrimidin-6-yl]phenyl}-3-(4-piperazin-1-ylphenyl)urea] | – | – | – | < 1 | 77 | > 10000 | 0.255 | 1 |

Now from value to compound, other results behind:

| IC50 (PI3K [1]; PI3 Kinase α) [nM] | IC50 (PI3K [2]; PI3 Kinase γ) [nM] | IC50 (Human mTOR (FLAG-TOR)) [nM] | IC50 (prostate line LNCap) [nM] | IC50 (PI3K [1]; [3]) [nM] | IC50 (PI3K [2]; [4]) [nM] | IC50 (Human mTOR (FLAG-TOR); [5]) [nM] | Compound | IC50 (breast line MDA468) [nM] |
| --- | --- | --- | --- | --- | --- | --- | --- | --- |
| 220 | 3020 | 0.775 | < 1 | – | – | – | O=C(Nc1ccc(CO)cc1)Nc1ccc(-c2nc(N3C[C@@H]4C[C@H]3CO4)c3cnn(CC(F)(F)F)c3n2)cc1 [Example 294, 1-[4-(hydroxymethyl)phenyl]-3-(4-{4-[(1S,4S)-2-oxa-5-azabicyclo[2.2.1]hept-5-yl]-1-(2,2,2-trifluoroethyl)-1H-pyrazolo[3,4-d]pyrimidin-6-yl}phenyl)urea] | 1 |
| 410 | 4670 | 2.33 | 1 | – | – | – | CN1CCN(c2ccc(NC(=O)Nc3ccc(-c4nc(N5C[C@@H]6C[C@H]5CO6)c5cnn(CC(F)(F)F)c5n4)cc3)cc2)CC1 [Example 295, 1-[4-(4-methylpiperazin-1-yl)phenyl]-3-(4-{4-[(1S,4S)-2-oxa-5-azabicyclo[2.2.1]hept-5-yl]-1-(2,2,2-trifluoroethyl)-1H-pyrazolo[3,4-d]pyrimidin-6-yl}phenyl)urea] | 13 |
| – | – | – | < 1 | 275 | 3580 | 0.55 | O=C(Nc1ccc(CCO)cc1)Nc1ccc(-c2nc(N3C[C@@H]4C[C@H]3CO4)c3cnn(CC(F)(F)F)c3n2)cc1 [Example 297, 1-[4-(2-hydroxyethyl)phenyl]-3-(4-{4-[(1S,4S)-2-oxa-5-azabicyclo[2.2.1]hept-5-yl]-1-(2,2,2-trifluoroethyl)-1H-pyrazolo[3,4-d]pyrimidin-6-yl}phenyl)urea] | 4 |
| – | – | – | < 1 | 1220 | 10400 | 1.25 | O=C(Nc1ccc(-c2nc(N3C[C@@H]4C[C@H]3CO4)c3cnn(CC(F)(F)F)c3n2)cc1)Nc1ccc(N2CCOCC2)cc1 [Example 298, 1-(4-morpholin-4-ylphenyl)-3-(4-{4-[(1S,4S)-2-oxa-5-azabicyclo[2.2.1]hept-5-yl]-1-(2,2,2-trifluoroethyl)-1H-pyrazolo[3,4-d]pyrimidin-6-yl}phenyl)urea] | 1 |
| – | – | – | 10 | 10200 | > 10000 | 2.85 | O=C(Nc1ccc(-c2nc(N3C[C@@H]4C[C@H]3CO4)c3cnn(CC(F)(F)F)c3n2)cc1)Nc1ccc(N2CCOCC2)nc1 [Example 299, 1-(6-morpholin-4-ylpyridin-3-yl)-3-(4-{4-[(1S,4S)-2-oxa-5-azabicyclo[2.2.1]hept-5-yl]-1-(2,2,2-trifluoroethyl)-1H-pyrazolo[3,4-d]pyrimidin-6-yl}phenyl)urea] | 42 |
| – | – | – | < 1 | 164 | 845 | 0.145 | COC1CCC(n2ncc3c(N4CC5CCC(C4)O5)nc(-c4ccc(NC(=O)Nc5ccncc5)cc4)nc32)CC1 (stereo not drawn) [Example 303, 1-{4-[1-(4-methoxycyclohexyl)-4-(8-oxa-3-azabicyclo[3.2.1]oct-3-yl)-1H-pyrazolo[3,4-d]pyrimidin-6-yl]phenyl}-3-pyridin-4-ylurea] | 1 |
| – | – | – | < 1 | 336 | 2670 | 0.385 | COC1CCC(n2ncc3c(N4CC5CCC(C4)O5)nc(-c4ccc(NC(=O)Nc5ccc(N6CCN(C)CC6)nc5)cc4)nc32)CC1 (stereo not drawn) [Example 309, 1-{4-[1-(4-methoxycyclohexyl)-4-(8-oxa-3-azabicyclo[3.2.1]oct-3-yl)-1H-pyrazolo[3,4-d]pyrimidin-6-yl]phenyl}-3-[6-(4-methylpiperazin-1-yl)pyridin-3-yl]urea] | 2 |
